From US10172868B2, “Substituted quinazolines for inhibiting kinase activity” (NeuPharma, Inc., priority 2013, dated 2019)

Assays:
[1] = biological target: EGFR (ErbB1) T790M L858R (Homo sapiens (Human), UniProt P00533, L858R/T790M); assay: Z'-LYTE kinase inhibition assay, EGFR L858R/T790M; assay type: biochemical; details: for inhibition at 0.0137 µM: read-out: % inhibition against EGFR L858R/T790M (Compound at 0.0137 μM); for IC50: read-out: IC50 against EGFR L858R/T790M
Description: Inhibitory activities of compounds against BTK, EGFR and EGFR mutants (EGFR L858R, EGFR T790M, EGFR L858R/T790M), FGFR1, FGFR2, JAK2, JAK3 and KDR were measured by Invitrogen using Z'-LYTE® Method as briefly described in the following. Test Compounds are screened in 1% DMSO (final) in the well. For 10 point titrations, 3-fold serial dilutions are conducted from the starting concentration. All ATP Solutions are diluted to a 4× working concentration in Kinase Buffer (50 mM HEPES pH 7.5, 0.01% BRIJ-35, 10 mM MgCl2, 1 mM EGTA). Peptide/Kinase Mixtures are diluted to a 2× working concentration in the appropriate Kinase Buffers as described below. (iv) Peptide/Kinase Mixtures for Measurement of EGFR (ErbB1) T790M L858R: The 2×EGFR (ErbB1) […] mixture is prepared in 50 mM HEPES pH 6.5, 0.01% BRIJ-35, 10 mM MgCl2, 1 mM EGTA, 0.02% NaN3. […] After the 1 hour Kinase Reaction incubation, 5 μL of a 1:64 dilution of Development Reagent B is added. Reaction starts by 30-second shaking of mixture consisting of 2.5 μL 4× test compound, […] 2× kinase reaction mixture and 2.5 μL 4×ATP Solution on Bar-coded Corning, low volume NBS, black 384-well plate (Corning Cat. #3676). Then the mixture is incubated for 60-minute at room temperature for the kinase reaction, followed by addition of 5 μL of a 1:1024 dilution of development reagent A and 30-second plate shake. The mixture is then incubated for another 60-minute at room temperature for development reaction. Finally fluorescence is read by plate reader. To determine IC50 of a compound against EGFR, EGFR mutant and other kinases, a series of concentrations of the compound were tested for the inhibition.

[2] = system: H1975 cells; assay: Inhibition of cancer cell growth, MTT assay, H1975; details: Homo sapiens, NCI-H1975, 72 h, read-out: IC50 in H1975 cells
Description: Inhibition of cell growth by compounds was measured using MTT assay (Mosmann, T., Journal of Immunological Methods, 1983, 65, 55-63). Tumor cell lines were purchased from ATCC (American Type Culture Collection, Manassas, Va.). All cell lines were maintained in RPMI 1640 (Hyclone) supplemented with 10% fetal bovine serum (FBS, Hyclone), glutamine (2 mM, Hyclone), and antibiotics (penicillin 100 U/mL and streptomycin 50 μg/mL) at 37° C. in a humidified atmosphere of 5% CO2 in air. Taxol (as a positive control. Sigma) and compounds were dissolved in DMSO (Sigma), and the final concentration of DMSO in the medium was 1%. Tumor cells were plated in 96-well plates at densities of about 4000 cells/well of a 96-well plate and allowed to adhere/grow for 24 h. They were then treated with various concentrations of drug for 72 h, 3-(4,5-Dimethylthiazol-2-yl)-2,5-diphenyltetrazolium bromide (MTT, Sigma) was used to determine the number of viable cells at the time of compound addition and the number of cells remaining after 72 h compound exposure. The number of cells remaining after 72 h was compared to the number of viable cells at the time of compound addition by measuring the absorbance at 570 nm, allowing for the calculation of growth inhibition.
All concentrations of compounds were tested in triplicate and controls were averaged over 4 wells. IC50 was calculated by plotting the concentration of compound vs the percentage of inhibition in treated wells using GraphPad Prism 5.

[3] = biological target: EGFR (ErbB1) (Homo sapiens (Human), UniProt P00533); assay: Z'-LYTE kinase inhibition assay, EGFR; assay type: biochemical; details: read-out: % inhibition against EGFR (Compound at 0.041 μM)
Description: Inhibitory activities of compounds against BTK, EGFR and EGFR mutants (EGFR L858R, EGFR T790M, EGFR L858R/T790M), FGFR1, FGFR2, JAK2, JAK3 and KDR were measured by Invitrogen using Z'-LYTE® Method as briefly described in the following. Test Compounds are screened in 1% DMSO (final) in the well. For 10 point titrations, 3-fold serial dilutions are conducted from the starting concentration. All ATP Solutions are diluted to a 4× working concentration in Kinase Buffer (50 mM HEPES pH 7.5, 0.01% BRIJ-35, 10 mM MgCl2, 1 mM EGTA). Peptide/Kinase Mixtures are diluted to a 2× working concentration in the appropriate Kinase Buffers as described below. (i) Peptide/Kinase Mixtures for Measurement of EGFR (ErbB1): The 2×EGFR (ErbB1)/[…] mixture is prepared in 50 mM HEPES pH 7.5, 0.01% BRIJ-35, 10 mM MgCl2. 4 mM MnCl2, 1 mM EGTA, 2 mM DTT. The final 10 μL Kinase Reaction consists of 1.1-5.25 ng EGFR (ErbB1) and 2 μM […] in 50 mM HEPES pH 7.5, 0.01% BRIJ-35, 10 mM MgCl2, 2 mM MnCl2. 1 mM EGTA, 1 mM DTT. After the 1 hour Kinase Reaction incubation, 5 μL of a 1:64 dilution of Development Reagent B is added. Reaction starts by 30-second shaking of mixture consisting of 2.5 μL 4× test compound, […] 2× kinase reaction mixture and 2.5 μL 4×ATP Solution on Bar-coded Corning, low volume NBS, black 384-well plate (Corning Cat. #3676). Then the mixture is incubated for 60-minute at room temperature for the kinase reaction, followed by addition of 5 μL of a 1:1024 dilution of development reagent A and 30-second plate shake. The mixture is then incubated for another 60-minute at room temperature for development reaction. Finally fluorescence is read by plate reader. To determine IC50 of a compound against EGFR, EGFR mutant and other kinases, a series of concentrations of the compound were tested for the inhibition.

Chain of EGFR (ErbB1) (P00533 25-1210): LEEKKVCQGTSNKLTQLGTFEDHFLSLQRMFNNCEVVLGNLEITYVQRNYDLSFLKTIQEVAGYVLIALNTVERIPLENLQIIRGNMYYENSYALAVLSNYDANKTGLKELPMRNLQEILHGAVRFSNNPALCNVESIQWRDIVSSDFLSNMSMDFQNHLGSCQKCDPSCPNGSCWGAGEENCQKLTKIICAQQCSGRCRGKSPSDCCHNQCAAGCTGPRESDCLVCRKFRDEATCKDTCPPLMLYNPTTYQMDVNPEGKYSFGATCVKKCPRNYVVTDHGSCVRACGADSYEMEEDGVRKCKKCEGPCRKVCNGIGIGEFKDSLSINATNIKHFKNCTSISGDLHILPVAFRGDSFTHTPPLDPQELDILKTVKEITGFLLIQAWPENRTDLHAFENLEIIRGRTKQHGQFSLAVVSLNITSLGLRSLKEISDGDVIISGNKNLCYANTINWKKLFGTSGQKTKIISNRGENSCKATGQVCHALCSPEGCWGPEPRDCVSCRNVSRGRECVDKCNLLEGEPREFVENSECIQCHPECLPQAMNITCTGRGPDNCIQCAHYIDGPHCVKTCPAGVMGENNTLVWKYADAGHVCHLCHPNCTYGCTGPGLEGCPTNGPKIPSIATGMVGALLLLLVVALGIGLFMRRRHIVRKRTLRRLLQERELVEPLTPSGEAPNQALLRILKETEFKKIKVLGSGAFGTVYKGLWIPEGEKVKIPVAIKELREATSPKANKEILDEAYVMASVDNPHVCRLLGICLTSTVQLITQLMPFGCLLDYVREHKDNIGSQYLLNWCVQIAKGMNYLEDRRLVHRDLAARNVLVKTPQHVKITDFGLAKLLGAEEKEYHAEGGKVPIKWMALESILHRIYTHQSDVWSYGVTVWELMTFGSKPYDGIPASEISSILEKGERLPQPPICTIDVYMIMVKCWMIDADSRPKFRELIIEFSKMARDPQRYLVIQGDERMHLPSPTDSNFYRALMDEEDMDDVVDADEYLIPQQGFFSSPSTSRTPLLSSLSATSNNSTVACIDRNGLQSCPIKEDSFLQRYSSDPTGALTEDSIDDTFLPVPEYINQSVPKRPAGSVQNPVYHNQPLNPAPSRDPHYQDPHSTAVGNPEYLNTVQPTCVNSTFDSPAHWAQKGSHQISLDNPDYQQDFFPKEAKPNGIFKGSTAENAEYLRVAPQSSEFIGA
Chain of EGFR (ErbB1) T790M L858R (P00533 25-1210 T790M/L858R): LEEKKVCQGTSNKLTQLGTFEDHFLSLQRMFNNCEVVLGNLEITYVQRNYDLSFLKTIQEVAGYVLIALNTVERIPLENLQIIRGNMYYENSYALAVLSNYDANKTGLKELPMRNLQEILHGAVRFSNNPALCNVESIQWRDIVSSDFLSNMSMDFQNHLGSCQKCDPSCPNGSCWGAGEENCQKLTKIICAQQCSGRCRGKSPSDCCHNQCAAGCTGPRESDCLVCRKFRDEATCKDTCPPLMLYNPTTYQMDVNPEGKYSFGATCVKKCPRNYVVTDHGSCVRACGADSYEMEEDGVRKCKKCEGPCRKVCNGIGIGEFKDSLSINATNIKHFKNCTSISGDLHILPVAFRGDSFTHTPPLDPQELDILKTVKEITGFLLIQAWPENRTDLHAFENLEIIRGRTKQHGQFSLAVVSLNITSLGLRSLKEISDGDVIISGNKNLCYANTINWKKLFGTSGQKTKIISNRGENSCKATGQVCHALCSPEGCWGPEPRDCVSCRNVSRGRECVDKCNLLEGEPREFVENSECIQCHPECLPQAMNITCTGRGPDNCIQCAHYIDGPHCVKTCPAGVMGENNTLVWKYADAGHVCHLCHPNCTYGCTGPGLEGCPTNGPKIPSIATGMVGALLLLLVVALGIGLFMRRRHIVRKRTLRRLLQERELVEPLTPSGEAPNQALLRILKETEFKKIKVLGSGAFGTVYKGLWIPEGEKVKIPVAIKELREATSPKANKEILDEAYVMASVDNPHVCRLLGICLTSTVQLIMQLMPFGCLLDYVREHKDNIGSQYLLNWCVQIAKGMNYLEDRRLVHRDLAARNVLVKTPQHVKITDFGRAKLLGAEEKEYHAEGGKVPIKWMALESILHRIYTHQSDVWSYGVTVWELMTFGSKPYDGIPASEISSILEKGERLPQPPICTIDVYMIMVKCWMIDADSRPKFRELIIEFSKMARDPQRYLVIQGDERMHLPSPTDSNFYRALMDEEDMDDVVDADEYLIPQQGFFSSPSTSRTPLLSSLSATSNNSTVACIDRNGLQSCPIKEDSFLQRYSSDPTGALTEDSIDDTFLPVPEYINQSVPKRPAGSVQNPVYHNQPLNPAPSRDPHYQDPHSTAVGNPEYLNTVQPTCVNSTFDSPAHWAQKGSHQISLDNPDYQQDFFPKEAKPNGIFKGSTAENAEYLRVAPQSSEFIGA

Row | SMILES | inhibition at 0.0137 µM [1] [%] | IC50 [2] [µM] | inhibition at 0.041 µM [3] [%] | IC50 [1] [µM]
1 | C=CC(=O)Nc1cccc(-c2cccc3cnc(Nc4ccc(N5CCOCC5=O)cc4)nc23)c1 [Example C095, N-(3-(2-((4-(3-oxomorpholino)phenyl)amino)quinazolin-8-yl)phenyl)acrylamide] | < 50 | 0.1 to 0.5 | < 50 | –
2 | C=CC(=O)Nc1cccc(-c2cccc3cnc(Nc4ccc(NCCO)cc4)nc23)c1 [Example C066, N-(3-(2-((4-((2-hydroxyethyl)amino)phenyl)amino)quinazolin-8-yl)phenyl)acrylamide] | < 50 | > 0.5 | < 50 | –
3 | C=CC(=O)Nc1cccc(-c2cccc3cnc(Nc4ccc(N5CCN(CCOC)CC5)c(F)c4)nc23)c1 [Example C155, N-(3-(2-((3-fluoro-4-(4-(2-methoxyethyl)piperazin-1-yl)phenyl)amino)quinazolin-8-yl)phenyl)acrylamide] | > 50 | < 0.1 | < 50 | –
4 | C=CC(=O)Nc1cccc(-c2cccc3cnc(Nc4ccc(N[C@H]5CCN(C(C)=O)C5)cc4)nc23)c1 [Example C128, (S)-N-(3-(2-((4-((1-acetylpyrrolidin-3-yl)amino)phenyl)amino)quinazolin-8-yl)phenyl)acrylamide] | < 50 | < 0.1 | < 50 | –
5 | C=CC(=O)Nc1cccc(-c2cccc3cnc(Nc4ccc(N5CCC(O)C5)cc4)nc23)c1 (stereo not drawn) [Example C098, N-(3-(2-((4-(3-hydroxypyrrolidin-1-yl)phenyl)amino)quinazolin-8-yl)phenyl)acrylamide] | < 50 | < 0.1 | < 50 | –
6 | C=CC(=O)Nc1cccc(-c2cccc3cnc(Nc4ccc(N5CCN(C)CC5)cc4C(=O)OC)nc23)c1 [Example C104, methyl 2-((8-(3-acrylamidophenyl)quinazolin-2-yl)amino)-5-(4-methylpiperazin-1-yl)benzoate] | < 50 | > 0.5 | < 50 | –
7 | C=CC(=O)N1CCC=C(c2cccc3cnc(Nc4ccc(N5CCN(C)CC5)cc4)nc23)C1 [Example C071, 1-(3-(2-((4-(4-methylpiperazin-1-yl)phenyl)amino)quinazolin-8-yl)-5,6-dihydropyridin-1(2H)-yl)prop-2-en-1-one] | < 50 | > 0.5 | < 50 | –
8 | C=CC(=O)Nc1ccc(C#N)c(-c2cccc3cnc(Nc4ccc(N5CCN(C)CC5)cc4)nc23)c1 [Example C100, N-(4-cyano-3-(2-((4-(4-methylpiperazin-1-yl)phenyl)amino)quinazolin-8-yl)phenyl)acrylamide] | < 50 | > 0.5 | < 50 | –
9 | C=CC(=O)Nc1cccc(-c2cccc3cnc(Nc4ccc(OC5CCN(CCO)CC5)cc4F)nc23)c1 [Example C144, N-(3-(2-((2-fluoro-4-((1-(2-hydroxyethyl)piperidin-4-yl)oxy)phenyl)amino)quinazolin-8-yl)phenyl)acrylamide] | > 50 | < 0.1 | > 50 | –
10 | C=CC(=O)Nc1cccc(-c2cccc3cnc(Nc4ccc(NCCF)cc4)nc23)c1 [Example C134, N-(3-(2-((4-((2-fluoroethyl)amino)phenyl)amino)quinazolin-8-yl)phenyl)acrylamide] | < 50 | < 0.1 | < 50 | –
11 | C=CC(=O)Nc1cccc(-c2cccc3cnc(Nc4ccc(N5CCN(CCO)CC5)c(F)c4)nc23)c1 [Example C142, N-(3-(2-((3-fluoro-4-(4-(2-hydroxyethyl)piperazin-1-yl)phenyl)amino)quinazolin-8-yl)phenyl)acrylamide] | – | < 0.1 | – | –
12 | C=CC(=O)Nc1cccc(-c2cccc3cnc(Nc4cnc(N5CCN(C)CC5)c(Cl)c4)nc23)c1 [Example C081, N-(3-(2-((5-chloro-6-(4-methylpiperazin-1-yl)pyridin-3-yl)amino)quinazolin-8-yl)phenyl)acrylamide] | > 50 | 0.1 to 0.5 | < 50 | < 0.1
13 | C=CC(=O)Nc1cccc(-c2cccc3cnc(Nc4ccc(N5CCN(C)C(CO)C5)cc4)nc23)c1 (stereo not drawn) [Example C077, N-(3-(2-((4-(3-(hydroxymethyl)-4-methylpiperazin-1-yl)phenyl)amino)quinazolin-8-yl)phenyl)acrylamide] | > 50 | < 0.1 | < 50 | < 0.1
14 | C=CC(=O)Nc1cccc(-c2cccc3cnc(Nc4ccc(-c5cn[nH]c5)cc4)nc23)c1 [Example C159, N-(3-(2-((4-(1H-pyrazol-4-yl)phenyl)amino)quinazolin-8-yl)phenyl)acrylamide] | < 50 | > 0.5 | – | –
15 | C=CC(=O)Nc1cccc(-c2cccc3cnc(Nc4ccc(N5CCCOCC5)cc4)nc23)c1 [Example C102, N-(3-(2-((4-(1,4-oxazepan-4-yl)phenyl)amino)quinazolin-8-yl)phenyl)acrylamide] | < 50 | < 0.1 | < 50 | –
16 | C=CC(=O)Nc1cccc(-c2cccc3cnc(Nc4ccc(N5CCN(CC(C)(C)O)CC5)c(F)c4)nc23)c1 [Example C143, N-(3-(2-((3-fluoro-4-(4-(2-hydroxy-2-methylpropyl)piperazin-1-yl)phenyl)amino)quinazolin-8-yl)phenyl)acrylamide] | > 50 | < 0.1 | < 50 | –
17 | C=CC(=O)Nc1cccc(-c2cccc3cnc(Nc4cc(F)c(N5CCN(C)CC5)cc4F)nc23)c1 [Example C160, N-(3-(2-((2,5-difluoro-4-(4-methylpiperazin-1-yl)phenyl)amino)quinazolin-8-yl)phenyl)acrylamide] | < 50 | 0.1 to 0.5 | – | –
18 | C=CC(=O)Nc1cccc(-c2cccc3cnc(Nc4cc(F)c(N5CCN(CC(C)(C)O)CC5)cc4F)nc23)c1 [Example C163, N-(3-(2-((2,5-difluoro-4-(4-(2-hydroxy-2-methylpropyl)piperazin-1-yl)phenyl)amino)quinazolin-8-yl)phenyl)acrylamide] | – | 0.1 to 0.5 | – | –
19 | C=CC(=O)Nc1cccc(-c2cccc3cnc(Nc4ccc(-n5cccn5)cc4)nc23)c1 [Example C158, N-(3-(2-((4-(1H-pyrazol-1-yl)phenyl)amino)quinazolin-8-yl)phenyl)acrylamide] | < 50 | 0.1 to 0.5 | – | –
20 | C=CC(=O)Nc1cccc(-c2cccc3cnc(Nc4ccc(OC5CCN(CCF)CC5)cc4F)nc23)c1 [Example C157, N-(3-(2-((2-fluoro-4-((1-(2-fluoroethyl)piperidin-4-yl)oxy)phenyl)amino)quinazolin-8-yl)phenyl)acrylamide] | < 50 | > 0.5 | – | –
